Experiments:
TBK1 = target: T1, TBK1 (Homo sapiens, UniProt Q9UHD2); test: TBK1 inhibition, ADP-Glo Kinase Assay; assay type: biochemical; settings: luminometer
T1 construct: purchased Promega V3991
T1 sequence (Q9UHD2 1-729): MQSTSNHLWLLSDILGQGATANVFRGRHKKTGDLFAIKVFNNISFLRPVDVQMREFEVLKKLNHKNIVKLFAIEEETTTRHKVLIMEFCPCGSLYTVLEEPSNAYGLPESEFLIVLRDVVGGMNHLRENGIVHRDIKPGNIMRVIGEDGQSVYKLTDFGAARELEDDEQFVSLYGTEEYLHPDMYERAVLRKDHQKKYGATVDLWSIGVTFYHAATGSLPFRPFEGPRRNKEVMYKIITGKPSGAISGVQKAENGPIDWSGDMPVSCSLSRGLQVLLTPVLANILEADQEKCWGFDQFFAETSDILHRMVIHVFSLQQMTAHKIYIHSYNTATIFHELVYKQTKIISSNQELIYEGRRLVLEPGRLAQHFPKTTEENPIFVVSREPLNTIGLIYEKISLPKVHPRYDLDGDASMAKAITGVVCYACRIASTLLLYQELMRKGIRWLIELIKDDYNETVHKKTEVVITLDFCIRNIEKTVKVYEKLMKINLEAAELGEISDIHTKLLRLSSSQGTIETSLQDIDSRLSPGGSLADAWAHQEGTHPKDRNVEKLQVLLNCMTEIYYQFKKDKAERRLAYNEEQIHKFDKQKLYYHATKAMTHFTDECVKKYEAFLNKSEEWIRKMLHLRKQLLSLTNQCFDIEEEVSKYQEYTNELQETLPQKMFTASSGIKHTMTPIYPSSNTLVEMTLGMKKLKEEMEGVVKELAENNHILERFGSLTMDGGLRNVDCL
Method: (§1) Inhibition activities on TNIK, IKKε and TBK1 were evaluated using the compounds of Examples 1 to 254.
(§2) The inhibition activities on TNIK, IKKε and TBK1 were measured by a luminometer, TNIK/IKKε/TBK1 Kinase Enzyme System (Promega, Ca# V4158; Invitrogen, PR8031B, Promega, Ca# V3991) and ADP-Glo Kinase Assay using ADP-Glo™ Kinase Analysis Kit (Promega, Ca# V9101) and a kinase reaction buffer [40 mM Tris(pH 7.5), 20 mM MgCl2, 0.1 mg/mL BSA] in accordance with the manufacturer's protocol.

IKKε = target: T2, IKKε (Homo sapiens, UniProt Q14164); test: IKKε inhibition, ADP-Glo Kinase Assay; assay type: biochemical; settings: luminometer
T2 construct: purchased Invitrogen PR8031B
T2 sequence (Q14164 1-716): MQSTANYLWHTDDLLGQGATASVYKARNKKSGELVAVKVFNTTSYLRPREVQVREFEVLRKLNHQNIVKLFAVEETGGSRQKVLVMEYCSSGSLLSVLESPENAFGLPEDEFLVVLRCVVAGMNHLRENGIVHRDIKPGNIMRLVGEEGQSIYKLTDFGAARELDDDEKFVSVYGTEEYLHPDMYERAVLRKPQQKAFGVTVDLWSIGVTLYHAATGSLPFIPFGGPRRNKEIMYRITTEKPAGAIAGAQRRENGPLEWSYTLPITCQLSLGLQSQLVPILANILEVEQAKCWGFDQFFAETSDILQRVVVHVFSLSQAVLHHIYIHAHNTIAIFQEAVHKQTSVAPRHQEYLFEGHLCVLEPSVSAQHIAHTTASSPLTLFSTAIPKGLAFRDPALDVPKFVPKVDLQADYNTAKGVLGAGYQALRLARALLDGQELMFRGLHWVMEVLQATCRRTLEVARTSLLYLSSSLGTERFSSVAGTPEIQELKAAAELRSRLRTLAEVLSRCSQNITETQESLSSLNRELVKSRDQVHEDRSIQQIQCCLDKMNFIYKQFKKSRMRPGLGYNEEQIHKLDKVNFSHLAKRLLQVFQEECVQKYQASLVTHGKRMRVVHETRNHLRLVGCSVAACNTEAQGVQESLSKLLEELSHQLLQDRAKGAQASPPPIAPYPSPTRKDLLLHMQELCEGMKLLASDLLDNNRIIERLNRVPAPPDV
Method: as §1, §2

Compound | IC50 (TBK1) | IC50 (IKKε)
O=C(NCc1ccco1)c1ccc2[nH]nc(NC(=O)c3ccc(N4CCOCC4)cc3)c2c1 [Example 50, N-(Furan-2-ylmethyl)-3-(4-morpholinobenzamido)-1H-indazole-5-carboxamide] | 0.0058 µM | 0.037 µM
CN1CCN(c2ccc(C(=O)Nc3n[nH]c4ccc(C(=O)NCc5ccco5)cc34)cc2)CC1 [Example 51, N-(Furan-2-ylmethyl)-3-(4-(4-methylpiperazin-1-yl)benzamido)-1H-indazole-5-carboxamide] | 0.0081 µM | 0.064 µM
CC(NC(=O)c1ccc2[nH]nc(NC(=O)c3ccc(N4CCN(C)CC4)cc3)c2c1)c1cccnc1 (centres unmarked) [Example 53, 3-(4-(4-Methylpiperazin-1-yl)benzamido)-N-(1-(pyridin-3-yl)ethyl)-1H-indazole-5-carboxamide] | 0.021 µM | > 10 µM
CCC(NC(=O)c1ccc2[nH]nc(NC(=O)c3ccc(N4CCOCC4)cc3)c2c1)c1cccs1 (centres unmarked) [Example 54, 3-(4-Morpholinobenzamido)-N-(1-(thiophen-2-yl)propyl)-1H-indazole-5-carboxamide] | 0.00036 µM | 0.0031 µM
O=C(NCc1cccnc1)c1ccc2[nH]nc(NC(=O)c3ccc(N4CCOCC4)cc3)c2c1 [Example 56, 3-(4-Morpholinobenzamido)-N-(pyridin-3-ylmethyl)-1H-indazole-5-carboxamide 2,2,2-trifluoroacetate] | 0.0033 µM | 0.1 µM
CCCC(NC(=O)c1ccc2[nH]nc(NC(=O)c3ccc(N4CCOCC4)cc3)c2c1)c1cccs1 (centres unmarked) [Example 58, 3-(4-Morpholinobenzamido)-N-(1-(thiophen-2-yl)butyl)-1H-indazole-5-carboxamide] | 0.039 µM | 0.13 µM
CCCC(NC(=O)c1ccc2[nH]nc(NC(=O)c3ccc(N4CCN(C)CC4)cc3)c2c1)c1cccs1 (centres unmarked) [Example 59, 3-(4-(4-Methylpiperazin-1-yl)benzamido)-N-(1-(thiophen-2-yl)butyl)-1H-indazole-5-carboxamide] | 0.032 µM | 0.11 µM
Cc1ccc(CNC(=O)c2ccc3[nH]nc(NC(=O)c4ccc(N5CCN(C)CC5)cc4)c3c2)s1 [Example 61, 3-(4-(4-Methylpiperazin-1-yl)benzamido)-N-((5-methylthiophen-2-yl)methyl)-1H-indazole-5-carboxamide] | 0.056 µM | 0.23 µM
O=C(NCc1ccc(C(F)(F)F)cc1)c1ccc2[nH]nc(NC(=O)c3ccc(N4CCOCC4)cc3)c2c1 [Example 65, 3-(4-Morpholinobenzamido)-N-(4-(trifluoromethyl)benzyl)-1H-indazole-5-carboxamide] | 0.76 µM | 1.95 µM
O=C(Nc1n[nH]c2ccc(C(=O)NC3(c4ccccc4)CC3)cc12)c1ccc(N2CCOCC2)cc1 [Example 67, 3-(4-Morpholinobenzamido)-N-(1-phenylcyclopropyl)-1H-indazole-5-carboxamide] | 0.003 µM | 0.005 µM
Cc1cc(CNC(=O)c2ccc3[nH]nc(NC(=O)c4ccc(N5CCN(C)CC5)cc4)c3c2)ccn1 [Example 70, 3-(4-(4-Methylpiperazin-1-yl)benzamido)-N-((2-methylpyridin-4-yl)methyl)-1H-indazole-5-carboxamide] | 0.18 µM | 1.5 µM
Cc1cc(N2CCOCC2)ccc1C(=O)Nc1n[nH]c2ccc(C(=O)NCc3cccs3)cc12 [Example 73, 3-(2-Methyl-4-morpholinobenzamido)-N-(thiophen-2-ylmethyl)-1H-indazole-5-carboxamide] | 0.004 µM | 0.044 µM
CN1CCN(c2ccc(C(=O)Nc3n[nH]c4ccc(C(=O)C(C(=O)O)c5cccs5)cc34)cc2)CC1 (centres unmarked) [Example 75, 3-(3-(4-(4-Methylpiperazin-1-yl)benzamido)-1H-indazol-5-yl)-3-oxo-2-(thiophen-2-yl)propanoic Acid] | 0.18 µM | 0.67 µM

The remaining compounds from weak to strong by IC50 (TBK1), led by results:

IC50 (TBK1) | IC50 (IKKε) | Compound
0.98 µM | 3.19 µM | CN1CCN(c2ccc(C(=O)Nc3n[nH]c4ccc(C(=O)NCc5ccc(C(F)(F)F)cc5)cc34)cc2)CC1 [Example 66, 3-(4-(4-Methylpiperazin-1-yl)benzamido)-N-(4-(trifluoromethyl)benzyl)-1H-indazole-5-carboxamide]
0.44 µM | > 10 µM | O=C(NCc1ccc(C(F)(F)F)nc1)c1ccc2[nH]nc(NC(=O)c3ccc(N4CCOCC4)cc3)c2c1 [Example 71, 3-(4-Morpholinobenzamido)-N-((6-(trifluoromethyl)pyridin-3-yl)methyl)-1H-indazole-5-carboxamide]
0.38 µM | 2.72 µM | Cc1cc(CNC(=O)c2ccc3[nH]nc(NC(=O)c4ccc(N5CCOCC5)cc4)c3c2)ccn1 [Example 69, N-((2-Methylpyridin-4-yl)methyl)-3-(4-morpholinobenzamido)-1H-indazole-5-carboxamide]
0.35 µM | 1.83 µM | CN1CCN(c2ccc(C(=O)Nc3n[nH]c4ccc(C(=O)NCc5ccc(C(F)(F)F)nc5)cc34)cc2)CC1 [Example 72, 3-(4-(4-Methylpiperazin-1-yl)benzamido)-N-((6-(trifluoromethyl)pyridin-3-yl)methyl)-1H-indazole-5-carboxamide]
0.034 µM | 0.28 µM | Cc1ccc(CNC(=O)c2ccc3[nH]nc(NC(=O)c4ccc(N5CCOCC5)cc4)c3c2)s1 [Example 60, N-((5-Methylthiophen-2-yl)methyl)-3-(4-morpholinobenzamido)-1H-indazole-5-carboxamide]
0.014 µM | > 10 µM | CC(NC(=O)c1ccc2[nH]nc(NC(=O)c3ccc(N4CCOCC4)cc3)c2c1)c1cccnc1 (centres unmarked) [Example 52, 3-(4-Morpholinobenzamido)-N-(1-(pyridin-3-yl)ethyl)-1H-indazole-5-carboxamide]
0.011 µM | 0.032 µM | CC(C)(NC(=O)c1ccc2[nH]nc(NC(=O)c3ccc(N4CCOCC4)cc3)c2c1)c1ccccc1 [Example 62, 3-(4-Morpholinobenzamido)-N-(2-phenylpropan-2-yl)-1H-indazole-5-carboxamide]
0.0094 µM | 0.036 µM | CN1CCN(c2ccc(C(=O)Nc3n[nH]c4ccc(C(=O)NC(C)(C)c5ccccc5)cc34)cc2)CC1 [Example 63, 3-(4-(4-Methylpiperazin-1-yl)benzamido)-N-(2-phenylpropan-2-yl)-1H-indazole-5-carboxamide]
0.0044 µM | 0.079 µM | Cc1cc(N2CCN(C)CC2)ccc1C(=O)Nc1n[nH]c2ccc(C(=O)NCc3cccs3)cc12 [Example 74, 3-(2-Methyl-4-(4-methylpiperazin-1-yl)benzamido)-N-(thiophen-2-ylmethyl)-1H-indazole-5-carboxamide]
0.0012 µM | 0.14 µM | CN1CCN(c2ccc(C(=O)Nc3n[nH]c4ccc(C(=O)NCc5cccnc5)cc34)cc2)CC1 [Example 57, 3-(4-(4-Methylpiperazin-1-yl)benzamido)-N-(pyridin-3-ylmethyl)-1H-indazole-5-carboxamide bis(2,2,2-trifluoroacetate)]
0.00093 µM | 0.0027 µM | CCC(NC(=O)c1ccc2[nH]nc(NC(=O)c3ccc(N4CCN(C)CC4)cc3)c2c1)c1cccs1 (centres unmarked) [Example 55, 3-(4-(4-Methylpiperazin-1-yl)benzamido)-N-(1-(thiophen-2-yl)propyl)-1H-indazole-5-carboxamide]
0.0006 µM | 0.0042 µM | CN1CCN(c2ccc(C(=O)Nc3n[nH]c4ccc(C(=O)NC5(c6ccccc6)CC5)cc34)cc2)CC1 [Example 68, 3-(4-(4-Methylpiperazin-1-yl)benzamido)-N-(1-phenylcyclopropyl)-1H-indazole-5-carboxamide]

— patent US10294207B2, “Pyrazole derivatives as TNIK, IKKϵ and TBK1 inhibitor and pharmaceutical composition comprising same” (GREEN CROSS CORPORATION, priority 2015, dated 2019)
